What was measured:
Cereblon (CRBN) protein = biological target: T1, Cereblon (CRBN) protein (Homo sapiens, UniProt Q96SW2); test: CRBN binding affinity, E3scan (Eurofins) competition binding with qPCR read-out; settings: lower % Ctrl = stronger binding, DMSO = 100 % Ctrl, lenalidomide = 0 % Ctrl
T1 construct: purchased Eurofins (E3scan service); host or cells: HEK-293
Experimental: Specifically, CRBN was produced using a HEK-293 cell line and labeled with DNA for qPCR detection. Streptavidin-coated magnetic beads were treated with a biotinylated small-molecule ligand at room temperature for 30 minutes to generate an affinity resin for E3scan analysis. The liganded beads were blocked with excess biotin and washed with a blocking buffer (SeaBlock (Pierce), 1 % BSA, 0.05 % Tween 20, 1 mM DTT) to remove unbound ligands and prevent non-specific binding. […] The test compound was prepared as a 100× stock in 100 % DMSO and diluted directly into the assay solution. All reactions were performed in a polypropylene 384-well plate with a final reaction volume of 0.02 mL. […] The CRBN concentration in the eluate was measured by qPCR. […] A lower '% Ctrl' indicates a stronger binding affinity. […] ((test compound signal−positive control signal)/(negative control signal−positive control signal)) × 100 [formula]

[1] = test system: T-cell leukemia cell line Jurkat; test: Cell viability assay (Cell Counting Kit-8), Jurkat; format: cell-based; settings: Homo sapiens, 72 hours, CCK-8, absorbance 450 nm
Experimental: (§1) To evaluate the cytotoxicity of the compounds synthesized in the Preparation Examples against cancer cells, a cell viability assay following treatment with the synthesized compounds was performed using a T-cell leukemia cell line Jurkat (KCLB, Cat# 40152), a human acute monocytic leukemia cell line MV-4-11 (ATCC, Cat# CRL-9591), and a human multiple myeloma cell line MM.1S (ATCC, Cat# CRL-2974).
(§2) As a culture medium for the cell lines, an RPMI medium containing 10 % heat-inactivated FBS and 1 % penicillin/streptomycin (P/S) antibiotics was used. The culture medium was stored refrigerated and warmed in a 37 °C water bath before use. Each cell line was used for the test after a stabilization period of at least 2 weeks after thawing, and cell culture was performed based on information provided by the cell line manufacturer regarding the thawing and subculture conditions.
(§3) The Jurkat, MV-4-11, or MM.1S cell line was seeded in a 96-well plate at a density of 1 × 10^4 cells/well and incubated in a 37 °C CO2 incubator overnight. After incubation, a prepared test compound was applied to each cell line, and the cells were incubated in a 37 °C CO2 incubator for 72 hours. After 72 hours of incubation, a Cell Counting Kit-8 (Dojindo, Cat# CK04-20) reagent was added, and the cells were incubated in a 37 °C CO2 incubator. Then, the absorbance was measured at 450 nm using a SpectraMax M3 Microplate Reader (N=2, duplicate measurement). The evaluation concentrations for evaluating the cytotoxicity of the compounds were 10 points: 100 µM, 20 µM, 4 µM, 0.8 µM, 0.16 µM, 0.032 µM, 0.0064 µM, 0.00128 µM, 0.000256 µM, and 0 µM, and the test was performed at 2 wells/concentration point (n=2). A GI50 was derived using a GraphPad Prism program.

[2] = test system: human multiple myeloma cell line MM.1S; test: Cell viability assay (Cell Counting Kit-8), MM.1S; format: cell-based; settings: MM1.S, 72 hours, CCK-8, absorbance 450 nm
Experimental: as §1, §2, §3

[3] = test system: human acute monocytic leukemia cell line MV-4-11; test: Cell viability assay (Cell Counting Kit-8), MV-4-11; format: cell-based; settings: MV4-11, 72 hours, CCK-8, absorbance 450 nm
Experimental: as §1, §2, §3

SMILES	CRBN binding affinity (% Ctrl @ 5µM) (Cereblon (CRBN) protein)	GI50 [1] [nM]	GI50 [2] [nM]	GI50 [3] [nM]
O=C1CCC(N2Cc3cc(C(=O)c4cc5ccccc5[nH]4)ccc3C2=O)C(=O)N1 (centres unmarked) [Compound 3, 3-(5-(1H-indole-2-carbonyl)-1-oxoisoindolin-2-yl)piperidine-2,6-dione]	A (0 ≤ '% Ctrl' < 0.1)	≤ 100	≤ 100	≤ 100
O=C1CCC(N2Cc3cc(C(=O)c4c[nH]c5ccccc45)ccc3C2=O)C(=O)N1 (centres unmarked) [Compound 4, 3-(5-(1H-indole-3-carbonyl)-1-oxoisoindolin-2-yl)piperidine-2.6-dione]	B (0.1 ≤ '% Ctrl' < 1)	100 to 1000	≤ 100	–
O=C1CCC(N2Cc3cc(C(=O)c4ccc(Nc5ccccc5)cc4)ccc3C2=O)C(=O)N1 (centres unmarked) [Compound 15, 3-(1-oxo-5-(4-(phenylamino)benzoyl)isoindolin-2-yl)piperidine-2,6-dione]	A (0 ≤ '% Ctrl' < 0.1)	100 to 1000	≤ 100	≤ 100
O=C1CCC(N2Cc3cc(C(=O)c4n[nH]c5ccccc45)ccc3C2=O)C(=O)N1 (centres unmarked) [Compound 17, 3-(5-(1H-indazole-3-carbonyl)-1-oxoisoindolin-2-yl)piperidine-2,6-dione]	A (0 ≤ '% Ctrl' < 0.1)	100 to 1000	≤ 100	≤ 100
O=C1CCC(N2Cc3cc(C(=O)c4c[nH]c5cc(Cl)ccc45)ccc3C2=O)C(=O)N1 (centres unmarked) [Compound 18, 3-(5-(6-chloro-1H-indole-3-carbonyl)-1-oxoisoindolin-2-yl)piperidine-2,6-dione]	–	100 to 1000	≤ 100	≤ 100
O=C1CCC(N2Cc3cc(C(=O)c4cc5ccc(F)cc5[nH]4)ccc3C2=O)C(=O)N1 (centres unmarked) [Compound 19, 3-(5-(6-fluoro-1H-indole-2-carbonyl)-1-oxoisoindolin-2-yl)piperidine-2,6-dione]	–	≤ 100	≤ 100	–
O=C1CCC(N2Cc3cc(C(=O)c4cc5ccc(Cl)cc5[nH]4)ccc3C2=O)C(=O)N1 (centres unmarked) [Compound 20, 3-(5-(6-chloro-1H-indole-2-carbonyl)-1-oxoisoindolin-2-yl)piperidine-2,6-dione]	–	≤ 100	≤ 100	–
O=C1CCC(N2Cc3cc(C(=O)c4ccc5cn[nH]c5c4)ccc3C2=O)C(=O)N1 (centres unmarked) [Compound 21, 3-(5-(1H-indazole-6-carbonyl)-1-oxoisoindolin-2-yl)piperidine-2,6-dione]	A (0 ≤ '% Ctrl' < 0.1)	100 to 1000	1000 to 10000	> 10000
CNc1ccc2cc(C(=O)c3ccc4c(c3)CN(C3CCC(=O)NC3=O)C4=O)[nH]c2c1 (centres unmarked) [Compound 22, 3-(5-(6-(methylamino)-1H-indole-2-carbonyl)-1-oxoisoindolin-2-yl)piperidine-2,6-dione]	A (0 ≤ '% Ctrl' < 0.1)	≤ 100	≤ 100	≤ 100
O=C1CCC(N2Cc3cc(C(=O)c4cc(-c5ccccc5)c[nH]4)ccc3C2=O)C(=O)N1 (centres unmarked) [Compound 27, 3-(1-oxo-5-(4-phenyl-1H-pyrrole-2-carbonyl)isoindolin-2-yl)piperidine-2,6-dione]	A (0 ≤ '% Ctrl' < 0.1)	≤ 100	≤ 100	–
O=C1CCC(N2Cc3cc(C(=O)N4Cc5cccc6cccc4c56)ccc3C2=O)C(=O)N1 (centres unmarked) [Compound 31, 3-(5-(1,2-dihydrobenxo[cd]indole-1-carbonyl)-1-oxoisoindolin-2-yl)piperidine-2,6-dione]	A (0 ≤ '% Ctrl' < 0.1)	100 to 1000	≤ 100	–
O=C1CCC(N2Cc3cc(C(=O)c4ccc(-c5ccccc5)cc4)ccc3C2=O)C(=O)N1 (centres unmarked) [Compound 33, 3-(5-([1,1'-biphenyl]-4-carbonyl)-1-oxoisoindolin-2-yl)piperidine-2,6-dione]	–	≤ 100	≤ 100	–
O=C1CCC(N2Cc3cc(C(=O)c4cc5ccccc5o4)ccc3C2=O)C(=O)N1 (centres unmarked) [Compound 34, 3-(5-(benzofuran-2-carbonyl)-1-oxoisoindolin-2-yl)piperidine-2,6-dione]	A (0 ≤ '% Ctrl' < 0.1)	≤ 100	≤ 100	–
O=C1CCC(N2Cc3cc(C(=O)c4cn(-c5ccccc5)c5ccccc45)ccc3C2=O)C(=O)N1 (centres unmarked) [Compound 35, 3-(1-oxo-5-(1-phenyl-1H-indole-3-carbonyl)isoindolin-2-yl)piperidine-2,6-dione]	A (0 ≤ '% Ctrl' < 0.1)	≤ 100	≤ 100	–
O=C1CCC(N2Cc3cc(C(=O)c4coc5ccccc45)ccc3C2=O)C(=O)N1 (centres unmarked) [Compound 37, 3-(5-(benzofuran-3-carbonyl)-1-oxoisoindolin-2-yl)piperidine-2,6-dione]	C (1 ≤ % Ctrl' < 10)	100 to 1000	≤ 100	–
O=C1CCC(N2Cc3cc(C(=O)c4ccc5c(c4)OCO5)ccc3C2=O)C(=O)N1 (centres unmarked) [Compound 42, 3-(5-(benzo[d][1,3]dioxole-5-carbonyl)-1-oxoisoindolin-2-yl)piperidine-2,6-dione]	–	≤ 100	≤ 100	–
O=C1CCC(N2Cc3cc(C(=O)c4ccc5ccccc5c4)ccc3C2=O)C(=O)N1 (centres unmarked) [Compound 44, 3-(5-(2-naphthoyl)-1-oxoisoindolin-2-yl)piperidine-2,6-dione]	–	≤ 100	> 10000	–
CN(C)c1ccc(C(=O)c2ccc3c(c2)CN(C2CCC(=O)NC2=O)C3=O)cc1 (centres unmarked) [Compound 46, 3-(5-(4-(dimethylamino)benzoyl)-1-oxoisoindolin-2-yl)piperidine-2,6-dione]	–	≤ 100	≤ 100	–
O=C1CCC(N2Cc3cc(C(=O)c4ccc(Br)cc4)ccc3C2=O)C(=O)N1 (centres unmarked) [Compound 49, 3-(5-(4-bromobenzoyl)-1-oxeisoindolin-2-yl)piperidine-2,6-dione]	–	≤ 100	1000 to 10000	–
O=C1CCC(N2Cc3cc(C(=O)c4ccc(O)cc4)ccc3C2=O)C(=O)N1 (centres unmarked) [Compound 52, 3-(5-(4-hydroxybenzoyl)-1-oxoisoindolin-2-yl)piperidine-2,6-dione]	–	100 to 1000	≤ 100	–
O=C1CCC(N2Cc3cc(C(=O)c4ccc(C5CCCCC5)cc4)ccc3C2=O)C(=O)N1 (centres unmarked) [Compound 55, 3-(5-(4-cyclohexylbenzoyl)-1-oxoisoindolin-2-yl)piperidine-2,6-dione]	–	≤ 100	≤ 100	–
Cn1c(C(=O)c2ccc3c(c2)CN(C2CCC(=O)NC2=O)C3=O)cc2ccccc21 (centres unmarked) [Compound 59, 3-(5-(1-methyl-1H-indole-2-carbonyl)-1-oxoisoindolin-2-yl)piperidine-2,6-dione]	–	100 to 1000	≤ 100	–
CC(C)(C)c1ccc(C(=O)c2ccc3c(c2)CN(C2CCC(=O)NC2=O)C3=O)cc1 (centres unmarked) [Compound 63, 3-(5-(4-(tert-butyl)benzoyl)-1-oxoisoindolin-2-yl)piperidine-2,6-dione]	–	≤ 100	≤ 100	–
O=C1CCC(N2Cc3cc(C(=O)c4ccc5ccccc5n4)ccc3C2=O)C(=O)N1 (centres unmarked) [Compound 70, 3-(1-oxo-5-(quinoline-2-carbonyl)isoindolin-2-yl)piperidine-2,6-dione]	–	1000 to 10000	> 10000	–
